Results reported in ChEMBL document CHEMBL5723584 (2023).

Assays:
[1] = target: BMP-2-inducible protein kinase (Homo sapiens, UniProt Q9NSY1); test: Promega NanoBRET (BMP2K)
[2] = target: Homeodomain-interacting protein kinase 4 (Homo sapiens, UniProt Q8NE63); test: Promega NanoBRET (HIPK4)
[3] = target: Serine/threonine-protein kinase A-Raf (Homo sapiens) (UniProt P10398); test: activity of A-Raf(h) at 1.0 µM in the Eurofins Kinase panel; details: Compound concentration 1.0 uM
[4] = target: ATR/ATRIP (Homo sapiens) (UniProt Q13535+Q8WXE1); test: activity of ATR/ATRIP(h) at 1.0 µM in the Eurofins Kinase panel; format: protein-complex assay; details: Compound concentration 1.0 uM
[5] = target: Aurora kinase B (Homo sapiens, UniProt Q96GD4); test: activity of Aurora-B(h) at 1.0 µM in the Eurofins Kinase panel; details: Compound concentration 1.0 uM
[6] = target: T1, Cyclin-dependent kinase 5/CDK5 activator 1 (Homo sapiens) (UniProt Q00535+Q15078); test: activity of CDK5/p25(h) at 1.0 µM in the Eurofins Kinase panel; format: protein-complex assay; details: Compound concentration 1.0 uM
[7] = target: T1, Cyclin-dependent kinase 5/CDK5 activator 1 (Homo sapiens); test: activity of CDK5/p35(h) at 1.0 µM in the Eurofins Kinase panel; format: protein-complex assay; details: Compound concentration 1.0 uM
[8] = target: CDK6/cyclin D3 (Homo sapiens) (UniProt P30281+Q00534); test: activity of CDK6/cyclinD3(h) at 1.0 µM in the Eurofins Kinase panel; format: protein-complex assay; details: Compound concentration 1.0 uM
[9] = target: Casein kinase I isoform alpha (Homo sapiens) (UniProt P48729); test: activity of CK1alpha(h) at 1.0 µM in the Eurofins Kinase panel; details: Compound concentration 1.0 uM
[10] = target: Mast/stem cell growth factor receptor Kit (Homo sapiens) (UniProt P10721); test: activity of cKit(h) at 1.0 µM in the Eurofins Kinase panel; details: Compound concentration 1.0 uM
[11] = target: Serine/threonine-protein kinase 35 (Homo sapiens) (UniProt Q8TDR2); test: activity of CLIK1(h) at 1.0 µM in the Eurofins Kinase panel; details: Compound concentration 1.0 uM
[12] = target: Ephrin type-A receptor 2 (Homo sapiens) (UniProt P29317); test: activity of EphA2(h) at 1.0 µM in the Eurofins Kinase panel; details: Compound concentration 1.0 uM
[13] = target: Ephrin type-B receptor 3 (Homo sapiens) (UniProt P54753); test: activity of EphB3(h) at 1.0 µM in the Eurofins Kinase panel; details: Compound concentration 1.0 uM
[14] = target: Receptor tyrosine-protein kinase erbB-2 (Homo sapiens) (UniProt P04626); test: activity of ErbB2(h) at 1.0 µM in the Eurofins Kinase panel; details: Compound concentration 1.0 uM
[15] = target: Glycogen synthase kinase-3 alpha (Homo sapiens) (UniProt P49840); test: activity of GSK3alpha(h) at 1.0 µM in the Eurofins Kinase panel; details: Compound concentration 1.0 uM
[16] = target: Inhibitor of nuclear factor kappa-B kinase subunit alpha (Homo sapiens) (UniProt O15111); test: activity of IKKalpha(h) at 1.0 µM in the Eurofins Kinase panel; details: Compound concentration 1.0 uM
[17] = target: Interleukin-1 receptor-associated kinase 1 (Homo sapiens) (UniProt P51617); test: activity of IRAK1(h) at 1.0 µM in the Eurofins Kinase panel; details: Compound concentration 1.0 uM
[18] = target: Mitogen-activated protein kinase 8 (Homo sapiens) (UniProt P45983); test: activity of JNK1alpha1(h) at 1.0 µM in the Eurofins Kinase panel; details: Compound concentration 1.0 uM
[19] = target: Vascular endothelial growth factor receptor 2 (Homo sapiens) (UniProt P35968); test: activity of KDR(h) at 1.0 µM in the Eurofins Kinase panel; details: Compound concentration 1.0 uM
[20] = target: MAP kinase-activated protein kinase 2 (Homo sapiens) (UniProt P49137); test: activity of MAPKAP-K2(h) at 1.0 µM in the Eurofins Kinase panel; details: Compound concentration 1.0 uM
[21] = target: Dual specificity mitogen-activated protein kinase kinase 2 (Homo sapiens) (UniProt P36507); test: activity of MEK2(h) at 1.0 µM in the Eurofins Kinase panel; details: Compound concentration 1.0 uM
[22] = target: Serine/threonine-protein kinase Nek1 (Homo sapiens) (UniProt Q96PY6); test: activity of NEK1(h) at 1.0 µM in the Eurofins Kinase panel; details: Compound concentration 1.0 uM
[23] = target: Serine/threonine-protein kinase Nek4 (Homo sapiens) (UniProt P51957); test: activity of NEK4(h) at 1.0 µM in the Eurofins Kinase panel; details: Compound concentration 1.0 uM
[24] = target: Serine/threonine-protein kinase OSR1 (Homo sapiens) (UniProt O95747); test: activity of OSR1(h) at 1.0 µM in the Eurofins Kinase panel; details: Compound concentration 1.0 uM
[25] = target: Serine/threonine-protein kinase PAK 1 (Homo sapiens) (UniProt Q13153); test: activity of PAK1(h) at 1.0 µM in the Eurofins Kinase panel; details: Compound concentration 1.0 uM
[26] = target: [Pyruvate dehydrogenase (acetyl-transferring)] kinase isozyme 4, mitochondrial (Homo sapiens) (UniProt Q16654); test: activity of PDHK4(h) at 1.0 µM in the Eurofins Kinase panel; details: Compound concentration 1.0 uM
[27] = target: Eukaryotic translation initiation factor 2-alpha kinase 3 (Homo sapiens) (UniProt Q9NZJ5); test: activity of PEK(h) at 1.0 µM in the Eurofins Kinase panel; details: Compound concentration 1.0 uM
[28] = target: Phosphorylase b kinase gamma catalytic chain, skeletal muscle/heart isoform (Homo sapiens) (UniProt Q16816); test: activity of PhKgamma1(h) at 1.0 µM in the Eurofins Kinase panel; details: Compound concentration 1.0 uM
[29] = target: Protein kinase C alpha type (Homo sapiens) (UniProt P17252); test: activity of PKCalpha(h) at 1.0 µM in the Eurofins Kinase panel; details: Compound concentration 1.0 uM
[30] = target: cGMP-dependent protein kinase 1 (Homo sapiens) (UniProt Q13976); test: activity of PKG1alpha(h) at 1.0 µM in the Eurofins Kinase panel; details: Compound concentration 1.0 uM
[31] = target: Interferon-induced, double-stranded RNA-activated protein kinase (Homo sapiens) (UniProt P19525); test: activity of PKR(h) at 1.0 µM in the Eurofins Kinase panel; details: Compound concentration 1.0 uM
[32] = target: Serine/threonine-protein kinase PLK1 (Homo sapiens) (UniProt P53350); test: activity of Plk1(h) at 1.0 µM in the Eurofins Kinase panel; details: Compound concentration 1.0 uM
[33] = target: Serine/threonine-protein kinase N1 (Homo sapiens) (UniProt Q16512); test: activity of PRK1(h) at 1.0 µM in the Eurofins Kinase panel; details: Compound concentration 1.0 uM
[34] = target: Serine/threonine-protein kinase SIK1 (Homo sapiens) (UniProt P57059); test: activity of SIK(h) at 1.0 µM in the Eurofins Kinase panel; details: Compound concentration 1.0 uM
[35] = target: Serine/threonine-protein kinase 16 (Homo sapiens) (UniProt O75716); test: activity of STK16(h) at 1.0 µM in the Eurofins Kinase panel; details: Compound concentration 1.0 uM
[36] = target: TGF-beta receptor type-1 (Homo sapiens) (UniProt P36897); test: activity of TGFBR1(h) at 1.0 µM in the Eurofins Kinase panel; details: Compound concentration 1.0 uM
[37] = target: Testis-specific serine/threonine-protein kinase 2 (Homo sapiens) (UniProt Q96PF2); test: activity of TSSK2(h) at 1.0 µM in the Eurofins Kinase panel; details: Compound concentration 1.0 uM
[38] = target: Serine/threonine-protein kinase WNK1 (Homo sapiens) (UniProt Q9H4A3); test: activity of WNK1(h) at 1.0 µM in the Eurofins Kinase panel; details: Compound concentration 1.0 uM
[39] = target: Tyrosine-protein kinase Yes (Homo sapiens) (UniProt P07947); test: activity of Yes(h) at 1.0 µM in the Eurofins Kinase panel; details: Compound concentration 1.0 uM

T1 sequence (Q00535 whole entry): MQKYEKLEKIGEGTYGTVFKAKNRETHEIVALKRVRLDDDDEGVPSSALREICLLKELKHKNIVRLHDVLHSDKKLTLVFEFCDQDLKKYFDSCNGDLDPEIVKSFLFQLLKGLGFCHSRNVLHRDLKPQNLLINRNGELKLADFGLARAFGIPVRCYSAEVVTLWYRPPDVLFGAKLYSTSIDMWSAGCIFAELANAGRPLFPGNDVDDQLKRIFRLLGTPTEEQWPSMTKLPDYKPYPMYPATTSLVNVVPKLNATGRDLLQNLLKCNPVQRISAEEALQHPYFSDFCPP
T1 sequence (Q15078 99-307 partner limits assumed): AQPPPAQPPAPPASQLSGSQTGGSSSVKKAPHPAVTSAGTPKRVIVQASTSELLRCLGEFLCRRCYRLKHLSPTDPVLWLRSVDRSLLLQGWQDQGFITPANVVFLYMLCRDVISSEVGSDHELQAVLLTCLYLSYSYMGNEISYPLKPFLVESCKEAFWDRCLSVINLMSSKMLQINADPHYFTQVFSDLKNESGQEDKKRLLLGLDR
Sequence of [Pyruvate dehydrogenase (acetyl-transferring)] kinase isozyme 4, mitochondrial (Homo sapiens) (Q16654 whole entry, looked up): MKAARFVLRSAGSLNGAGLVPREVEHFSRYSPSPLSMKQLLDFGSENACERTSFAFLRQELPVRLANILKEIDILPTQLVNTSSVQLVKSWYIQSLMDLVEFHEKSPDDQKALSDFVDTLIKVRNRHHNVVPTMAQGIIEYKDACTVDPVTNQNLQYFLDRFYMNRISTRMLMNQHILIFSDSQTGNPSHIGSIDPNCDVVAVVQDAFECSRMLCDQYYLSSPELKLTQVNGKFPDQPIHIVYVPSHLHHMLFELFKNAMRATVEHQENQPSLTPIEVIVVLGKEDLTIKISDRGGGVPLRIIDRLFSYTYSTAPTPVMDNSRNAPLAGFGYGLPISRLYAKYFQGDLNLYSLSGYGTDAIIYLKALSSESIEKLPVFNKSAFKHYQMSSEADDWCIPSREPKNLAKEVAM
Sequence of Serine/threonine-protein kinase A-Raf (Homo sapiens) (P10398 whole entry): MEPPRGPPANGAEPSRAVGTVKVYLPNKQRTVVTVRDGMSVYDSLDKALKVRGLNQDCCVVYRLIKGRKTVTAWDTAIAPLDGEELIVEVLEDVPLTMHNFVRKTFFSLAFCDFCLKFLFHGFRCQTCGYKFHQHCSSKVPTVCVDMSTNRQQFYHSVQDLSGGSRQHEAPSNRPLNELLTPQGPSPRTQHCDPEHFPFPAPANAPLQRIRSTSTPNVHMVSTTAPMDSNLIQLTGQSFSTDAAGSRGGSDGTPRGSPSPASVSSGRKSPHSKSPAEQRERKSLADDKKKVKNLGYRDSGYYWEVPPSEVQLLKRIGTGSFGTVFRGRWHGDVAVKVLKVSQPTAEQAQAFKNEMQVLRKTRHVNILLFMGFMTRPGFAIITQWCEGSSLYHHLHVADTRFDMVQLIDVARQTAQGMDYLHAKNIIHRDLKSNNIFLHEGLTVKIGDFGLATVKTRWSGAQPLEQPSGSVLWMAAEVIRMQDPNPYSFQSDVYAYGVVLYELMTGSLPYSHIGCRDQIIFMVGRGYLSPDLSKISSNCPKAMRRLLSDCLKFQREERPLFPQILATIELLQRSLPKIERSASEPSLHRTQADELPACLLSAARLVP
Sequence of Testis-specific serine/threonine-protein kinase 2 (Homo sapiens) (Q96PF2 whole entry): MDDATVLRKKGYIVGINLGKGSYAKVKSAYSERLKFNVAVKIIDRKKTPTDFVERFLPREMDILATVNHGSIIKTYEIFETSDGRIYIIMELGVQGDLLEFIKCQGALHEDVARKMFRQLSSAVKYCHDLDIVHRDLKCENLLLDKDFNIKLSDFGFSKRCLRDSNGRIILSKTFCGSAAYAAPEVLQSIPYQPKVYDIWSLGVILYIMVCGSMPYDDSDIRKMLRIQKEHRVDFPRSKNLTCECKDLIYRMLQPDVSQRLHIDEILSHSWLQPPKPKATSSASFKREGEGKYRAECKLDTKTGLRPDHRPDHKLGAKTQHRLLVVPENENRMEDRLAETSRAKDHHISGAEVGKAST
Sequence of Interferon-induced, double-stranded RNA-activated protein kinase (Homo sapiens) (P19525 whole entry): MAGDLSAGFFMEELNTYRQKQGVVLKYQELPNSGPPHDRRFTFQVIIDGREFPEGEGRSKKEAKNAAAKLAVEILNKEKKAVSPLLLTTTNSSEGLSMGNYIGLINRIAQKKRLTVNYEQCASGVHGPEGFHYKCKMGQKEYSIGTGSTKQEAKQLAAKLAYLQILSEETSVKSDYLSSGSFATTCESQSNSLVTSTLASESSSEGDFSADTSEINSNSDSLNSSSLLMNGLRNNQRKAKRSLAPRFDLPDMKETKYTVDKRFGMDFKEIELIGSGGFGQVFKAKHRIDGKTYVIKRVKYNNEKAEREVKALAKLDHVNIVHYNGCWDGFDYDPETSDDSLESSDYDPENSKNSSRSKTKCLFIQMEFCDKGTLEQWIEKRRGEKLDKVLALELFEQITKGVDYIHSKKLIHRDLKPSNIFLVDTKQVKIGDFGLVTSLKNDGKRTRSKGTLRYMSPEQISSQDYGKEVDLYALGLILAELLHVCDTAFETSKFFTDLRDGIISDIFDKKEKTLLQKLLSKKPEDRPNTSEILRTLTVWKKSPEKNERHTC
Sequence of Serine/threonine-protein kinase N1 (Homo sapiens) (Q16512 2-942 limits assumed): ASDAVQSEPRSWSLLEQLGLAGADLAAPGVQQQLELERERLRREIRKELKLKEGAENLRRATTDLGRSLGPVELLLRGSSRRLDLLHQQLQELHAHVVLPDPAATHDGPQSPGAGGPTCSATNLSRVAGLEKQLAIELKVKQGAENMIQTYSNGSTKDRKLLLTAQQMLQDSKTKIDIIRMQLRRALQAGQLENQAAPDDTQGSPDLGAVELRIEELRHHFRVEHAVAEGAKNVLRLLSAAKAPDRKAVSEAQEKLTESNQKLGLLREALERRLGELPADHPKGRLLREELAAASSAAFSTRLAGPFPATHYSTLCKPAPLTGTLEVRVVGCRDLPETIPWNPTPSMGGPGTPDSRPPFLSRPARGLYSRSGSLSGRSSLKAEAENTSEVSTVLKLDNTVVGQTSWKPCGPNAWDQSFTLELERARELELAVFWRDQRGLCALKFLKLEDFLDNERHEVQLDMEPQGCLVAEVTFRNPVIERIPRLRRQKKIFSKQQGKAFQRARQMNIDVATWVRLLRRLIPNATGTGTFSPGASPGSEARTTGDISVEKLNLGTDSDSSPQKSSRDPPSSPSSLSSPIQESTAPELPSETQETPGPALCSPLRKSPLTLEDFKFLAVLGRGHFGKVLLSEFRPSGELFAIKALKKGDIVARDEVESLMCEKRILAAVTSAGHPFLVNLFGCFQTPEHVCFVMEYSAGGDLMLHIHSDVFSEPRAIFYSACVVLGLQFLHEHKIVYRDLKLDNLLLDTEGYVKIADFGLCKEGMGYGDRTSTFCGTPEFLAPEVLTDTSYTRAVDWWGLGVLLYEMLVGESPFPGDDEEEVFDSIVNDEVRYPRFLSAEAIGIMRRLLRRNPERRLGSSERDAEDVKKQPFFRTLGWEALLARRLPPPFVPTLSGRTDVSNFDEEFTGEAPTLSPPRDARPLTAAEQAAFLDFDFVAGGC
Sequence of Homeodomain-interacting protein kinase 4 (Q8NE63 whole entry): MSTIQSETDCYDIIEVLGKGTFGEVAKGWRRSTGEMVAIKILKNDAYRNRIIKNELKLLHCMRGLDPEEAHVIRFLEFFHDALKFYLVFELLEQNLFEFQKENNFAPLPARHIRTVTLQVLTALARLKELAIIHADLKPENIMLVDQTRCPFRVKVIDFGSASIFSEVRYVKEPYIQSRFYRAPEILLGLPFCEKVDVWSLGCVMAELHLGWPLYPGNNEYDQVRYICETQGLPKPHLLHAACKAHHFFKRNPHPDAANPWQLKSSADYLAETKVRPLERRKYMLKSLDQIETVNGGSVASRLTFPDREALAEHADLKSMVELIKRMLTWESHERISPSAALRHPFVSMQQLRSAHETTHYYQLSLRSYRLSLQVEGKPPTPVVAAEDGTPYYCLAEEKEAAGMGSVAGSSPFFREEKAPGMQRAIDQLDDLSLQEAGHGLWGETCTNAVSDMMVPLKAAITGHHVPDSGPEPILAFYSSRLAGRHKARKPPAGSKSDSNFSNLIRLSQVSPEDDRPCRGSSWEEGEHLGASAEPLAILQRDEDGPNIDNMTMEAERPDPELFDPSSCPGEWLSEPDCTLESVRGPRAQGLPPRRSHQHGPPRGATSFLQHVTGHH
Sequence of Serine/threonine-protein kinase 16 (Homo sapiens) (O75716 whole entry): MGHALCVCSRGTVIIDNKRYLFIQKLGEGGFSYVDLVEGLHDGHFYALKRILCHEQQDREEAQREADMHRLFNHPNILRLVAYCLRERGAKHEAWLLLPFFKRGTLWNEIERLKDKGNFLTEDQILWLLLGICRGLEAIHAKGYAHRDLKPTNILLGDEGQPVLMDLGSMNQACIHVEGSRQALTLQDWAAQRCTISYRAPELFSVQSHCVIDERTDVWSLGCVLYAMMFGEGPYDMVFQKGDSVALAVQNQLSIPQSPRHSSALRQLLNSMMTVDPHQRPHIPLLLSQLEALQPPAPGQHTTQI

Cc1cc2c(-c3ccc(NC(=O)[C@H](N)CC(C)(C)C)cc3C)ccnc2[nH]1
IC50 [1]: > 10 µM (not active)
IC50 [2]: > 10 µM (not active)
activity [3]: 97%
activity [4]: 110%
activity [5]: 109%
activity [6]: 72%
activity [7]: 79%
activity [8]: 90%
activity [9]: 97%
activity [10]: 85%
activity [11]: 97%
activity [12]: 95%
activity [13]: 79%
activity [14]: 97%
activity [15]: 87%
activity [16]: 98%
activity [17]: 95%
activity [18]: 110%
activity [19]: 78%
activity [20]: 72%
activity [21]: 92%
activity [22]: 94%
activity [23]: 90%
activity [24]: 80%
activity [25]: 95%
activity [26]: 101%
activity [27]: 91%
activity [28]: 101%
activity [29]: 92%
activity [30]: 118%
activity [31]: 85%
activity [32]: 111%
activity [33]: 91%
activity [34]: 105%
activity [35]: 94%
activity [36]: 103%
activity [37]: 113%
activity [38]: 109%
activity [39]: 87%
